This passage reports melting point and IC50 results from patent publication US8518947B2, “(Heterocycle/tetrahydropyridine)-(piperazinyl)-1-alcanone and (heterocycle/dihydropyrrolidine)-(piperazinyl)-1-alcanone derivatives, and use thereof as p75 inhibitors” (Sanofi, priority 2009, dated 2013).

Structures can show the parent of a compound that is named as a salt.

One data set has as its target T1, p75^NTR receptor (Homo sapiens, UniProt P08138).
T1 construct: the clone Bep 75, stably expressing the complete form of the human p75^NTR receptor; expressed in transfected cells; host or cells: SK-N-BE Bep 75 (human neuroblastoma clone stably expressing the receptor); the soluble p75NTR-AP came from the supernatant of transiently transfected HEK293 cells
T1 sequence (P08138 29-427): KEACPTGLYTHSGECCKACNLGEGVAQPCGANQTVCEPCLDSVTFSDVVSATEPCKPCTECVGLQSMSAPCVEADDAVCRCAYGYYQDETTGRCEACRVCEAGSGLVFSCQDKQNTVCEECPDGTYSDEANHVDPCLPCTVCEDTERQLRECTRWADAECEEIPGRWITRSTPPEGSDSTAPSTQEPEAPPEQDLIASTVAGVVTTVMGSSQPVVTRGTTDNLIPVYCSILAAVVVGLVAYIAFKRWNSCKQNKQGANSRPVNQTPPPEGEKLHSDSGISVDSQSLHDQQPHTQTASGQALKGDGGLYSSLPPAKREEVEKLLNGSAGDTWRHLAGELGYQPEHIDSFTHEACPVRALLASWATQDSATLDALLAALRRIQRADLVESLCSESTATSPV
Kind of data set: Study of the dimerization of the p75NTR receptor independently of its ligand (binding of soluble p75NTR-alkaline phosphatase to SK-N-BE Bep 75 cells). The settings on record: 1 hour preincubation at 37° C., soluble p75NTR-alkaline phosphatase 10 nM. On the procedure: (§1) The SK-N-BE parent strain (human neuroblastoma) and the clone Bep 75, stably expressing the complete form of the human p75^NTR receptor (SK-N-BE Bep 75) are conventionally cultured in an RPMI culture medium containing FCS (5%), sodium pyruvate (1 mM) and glutamine (4 mM). For the SK-N-BE Bep 75 cells, hygromycin (200 μl/20 ml of medium) is added as selection agent.
Study of the Dimerization of the p75^NTR Receptor Independently of its Ligand
The study of the dimerization of the p75^NTR receptor is performed on a cell suspension of the strain SK-N-BE Bep 75. The cells (2.5×10^4 cells/well) are placed in wells (96-well plate) for 24 hours, and then preincubated for 1 hour at 37° C. in the presence or absence of the compounds according to the invention. Supernatent, obtained from a culture of human cells of HEK293 renal origin expressing, after 48 hours of transfection, and secreting a soluble form of the p75^NTR receptor (extracellular part of the receptor) coupled to an alkaline phosphatase, the latter at a final concentration of 10 nM, is then added. The quantification of the specific binding of the soluble receptor to the receptor present on SK-N-BE Bep 75 cells is determined by measuring the enzyme activity of the alkaline phosphatase after incubation of the cells for 1 hour at 37° C. in the presence of the supernatant. After filtering and transferring the filters into 24-well plates, the alkaline phosphatase activity is determined by adding CDP-Star chemoluminescent substrate (ready-to-use, Roche).

Data set [1] has as its system strains of human neuroblastomas SH-SY-5Y and SK-N-BE Bep 75. Description: Measurement of the apoptosis (cell death detection ELISA, cytoplasmic histones associated with DNA fragments). The settings on record: SH-SY-5Y (48 hours) and SK-N-BE Bep 75 (24 hours), NGF 10 ng/ml or beta-amyloid peptide 10 μM, cell line not stated, read-out: IC50 in the apoptosis test. It counts as cell-based. The method, then:
The SH-SY-5Y strain (human neuroblastoma) is conventionally cultured in a DMEM culture medium (Dulbecco's Modified Eagle's Medium) (Gibco BRL, France) containing FCS (5%) (fetal calf serum) (Boehringer Mannheim, Germany), sodium pyruvate (1 mM) and glutamine (4 mM) in collagen-covered culture flasks (Becton Dickinson, France).
as §1
Measurement of the Apoptosis
The cells (strains of human neuroblastomas SH-SY-5Y and SK-N-BE Bep 75) are placed in Petri dishes 35 mm in diameter (Biocoat collagenl, (10^5 cells/well)) in a suitable culture medium containing 5% FCS, for 24 hours. The culture medium is then removed, the cells are rinsed with PBS (Dulbecco's Phosphate-buffered saline), and then either fresh medium containing 5% FCS, or medium containing NGF (at a concentration of 10 ng/ml), or beta-amyloid peptide (A1β1-40) (at a concentration of 10 μM) is then added, in the presence or absence of the compounds according to the invention. The apoptosis levels are measured 48 hours after the treatments in the case of the strain SH-SY-5Y, and 24 hours later in the case of the strain SK-N-BE Bep 75, by quantifying the cytoplasmic histones associated with the DNA fragments (cell death detection ELISA, Boehringer Mannheim, Germany). The apoptosis levels are expressed as the amount of oligonucleosomes/10^5 cells. Each value corresponds to the average of 9 experimental points distributed over 3 independent experiments.

Consider `C[C@@H]1CN(c2ccc(C(F)(F)F)cn2)C[C@H](C)N1CC(=O)N1CC=C(c2cccc3ccoc23)CC1` [Compound 34, 1-(4-benzofuran-7-yl-3,6-dihydro-2H-pyridin-1-yl)-2-[(2S,6R)-2,6-dimethyl-4-(5-trifluoromethylpyridin-2-yl)piperazin-1-yl]ethanone], for which the melting point lay within 138 to 139 °C. Moreover, the IC50 on p75^NTR receptor is 0.94 nM. Moreover, the IC50 in data set [1] was found to be 3.39 nM.

On to `C[C@@H]1CN(c2ccc3ccccc3n2)C[C@H](C)N1CC(=O)N1CC=C(c2cccc3ccsc23)CC1` [Compound 19, 1-(4-benzo[b]thiophen-7-yl-3,6-dihydro-2H-pyridin-1-yl)-2-((2S,6R)-2,6-dimethyl-4-quinolin-2-ylpiperazin-1-yl)ethanone], for which, in data set [1], the IC50 turned out to be 1.07 nM.

At p75^NTR receptor, `CC1CN(c2cnccn2)CC(C)N1CC(=O)N1CC=C(c2cccc3ccsc23)CC1` (centres unmarked) [Compound 1, 1-(4-benzo[b]thiophen-7-yl-3,6-dihydro-2H-pyridin-1-yl)-2-(3,5-dimethyl-2,3,5,6-tetrahydro[1,2′]bipyrazinyl-4-yl)ethanone] gave an IC50 of 0.08 nM.

As to `C[C@@H]1CN(c2ncc(F)cn2)C[C@H](C)N1CC(=O)N1CC=C(c2cccc3ccoc23)CC1` [Compound 36, 1-(4-benzofuran-7-yl-3,6-dihydro-2H-pyridin-1-yl)-2-[(2S,6R)-4-(5-fluoropyrimidin-2-yl)-2,6-dimethylpiperazin-1-yl]ethanone], the IC50 at p75^NTR receptor was found to be 20 nM.

As for `C[C@@H]1CN(c2ccc(C(F)(F)F)cn2)[C@@H](C)CN1CC(=O)N1CC=C(c2cccc3ccoc23)CC1` [Compound 14, 1-(4-benzofuran-7-yl-3,6-dihydro-2H-pyridin-1-yl)-2-[(2R,5S)-2,5-dimethyl-4-(5-trifluoromethylpyridin-2-yl)piperazin-1-yl]ethanone], the IC50 was 1.09 nM at p75^NTR receptor and 1.33 nM in data set [1].

`O=C(CN1CCN(c2ccc3ccccc3n2)CC1)N1CC=C(c2cccc3ccsc23)CC1` [Compound 105, 1-(4-benzo[b]thiophen-7-yl-3,6-dihydro-2H-pyridin-1-yl)-2-(4-quinolin-2-ylpiperazin-1-yl)ethanone] yielded a melting point of 177 to 178 °C.

In turn, `C[C@@H]1CN(c2ccc(-c3nnn(C)n3)cn2)C[C@H](C)N1CC(=O)N1CC=C(c2cccc3ccoc23)CC1` (as salt: oxalate) [Compound 120, 1-(4-benzofuran-7-yl-3,6-dihydro-2H-pyridin-1-yl)-2-{(2S,6R)-2,6-dimethyl-4-[5-(2-methyl-2H-tetrazol-5-yl)pyridin-2-yl]piperazin-1-yl}ethanone] returned a melting point of 165 to 170 °C.

For the compound `O=C(CN1CCN(c2ccc(Cl)c(Cl)n2)CC1)N1CC=C(c2cccc3ccsc23)CC1` [Compound 112, 1-(4-benzo[b]thiophen-7-yl-3,6-dihydro-2H-pyridin-1-yl)-2-[4-(5,6-dichloropyridin-2-yl)piperazin-1-yl]ethanone], the melting point fell in the range of 89 to 90 °C.

`O=C(O)c1ccc(N2C3CCC2CN(CC(=O)N2CC=C(c4cccc5ccsc45)C2)C3)nc1` registered a melting point of 189 to 190 °C.

Regarding `C[C@@H]1CN(c2ccc(C(=O)O)cn2)C[C@H](C)N1CC(=O)N1CC=C(c2cccc3ccoc23)CC1` [Compound 57, 6-{(3S,5R)-4-[2-(4-benzofuran-7-yl-3,6-dihydro-2H-pyridin-1-yl)-2-oxoethyl]-3,5-dimethylpiperazin-1-yl}nicotinic acid], the melting point lay within 272 to 274 °C.

In the case of `COC(=O)c1ccc(N2C3CCC2CN(CC(=O)N2CC=C(c4ccc5sccc5c4)CC2)C3)nc1`, the melting point was in the range of 150 to 151 °C.

Consider `O=C(CN1CC2CCC(C1)N2c1ncc(F)cn1)N1CC=C(c2ccc3c(c2)OCCO3)CC1`, for which the melting point was in the range of 163 to 165 °C.

With `O=C(CN1CCN(c2ccc(C(F)(F)F)cn2)CC1)N1CC=C(c2c[nH]c3ccccc23)CC1` [Compound 109, 1-[4-(1H-indol-3-yl)-3,6-dihydro-2H-pyridin-1-yl]-2-[4-(5-trifluoromethylpyridin-2-yl)piperazin-1-yl]ethanone], the melting point was in the range of 220 to 222 °C.

As to `O=C(CN1CC2CCC(C1)N2c1cccnc1)N1CC=C(c2cccc3ccoc23)CC1`, the melting point fell in the range of 121 to 123 °C.

As a reminder, the melting point is the temperature, or range, at which the solid turns liquid. What is called IC50 is the concentration that inhibits the measured activity by half.
